Holding throughout (test): Transactivation test in HeLa cells (luciferase reporter), apparent Kd by Schild regression
Holding throughout (assay type): cell-based

One assay deals with T1, RAR beta (Homo sapiens, UniProt P10826).
T1 sequence (P10826 183-417 limits assumed): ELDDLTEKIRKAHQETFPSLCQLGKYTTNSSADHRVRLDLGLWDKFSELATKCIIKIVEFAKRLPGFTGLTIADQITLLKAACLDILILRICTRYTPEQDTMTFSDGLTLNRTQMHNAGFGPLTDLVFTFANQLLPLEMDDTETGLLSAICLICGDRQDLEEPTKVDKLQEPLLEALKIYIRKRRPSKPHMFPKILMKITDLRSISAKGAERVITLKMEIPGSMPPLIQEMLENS
The following applies: stably transfected HeLa cells, versus reference antagonist, 18 hours incubation, read-out: RAR beta Kdapp. The protocol: (§1) Activation of receptors by an agonist (activator) in HeLa cells leads to the expression of a reporter gene, luciferase, which generates light in the presence of a substrate. Therefore the activation of receptors can be measured by quantifying the luminescence produced after incubation of the cells in the presence of a reference antagonist. The activator products displace the antagonist from its site, thus permitting the receptor to be activated. The activity is measured by quantifying the increase in light produced. This measurement determines the activating activity of the useful compound in the invention.
(§2) In this study, a constant is determined that represents the affinity of the molecule for the receptor. This value can fluctuate according to the basal activity and expression of the receptor; it is designated apparent Kd (KdApp). […]
(§3) Full agonist controls, also called 100% controls, (4-[2-(5,5,8,8 tetramethyl-5,6,7,8 tetrahydronaphthalene-2-yl)propenyl]-benzoic acid) and inverse agonist controls, also called 0% controls, (4-{(E)-3-[4-(4-tert-butyl-phenyl)-5,5,8,8-tetramethyl-5,6,7,8-tetrahydro-naphthalen-2-yl]-3-oxo-propenyl}-benzoic acid) are also measured.
(§4) These cross curves allow determining the AC50 (concentration at which 50% activation of the receptor is observed) of the reference ligand at different concentrations of the product to be tested. These AC50s are used to calculate the Schild regression by plotting a line conforming to the Schild equation (“Quantitation in receptor pharmacology” Terry P. Kenakin, Receptors and Channels, 2001, 7, 371-385).
(§5) In the case of an […], the AC50 is calculated by plotting the curve of the product at the concentration of the reference ligand giving 80% activation. The percentage of activation that corresponds to the maximum level of activity obtained is also measured. […]
(§6) The culture medium is removed by turning over and 100 μl of a 1:1 PBS (phosphate buffer solution)/luciferin mixture is added to each well. After 5 minutes, the plates are read by the luminescence reader.

For the next assay, the target named is T2, RAR alpha (Homo sapiens, UniProt P10276).
T2 sequence (P10276 183-417 limits assumed): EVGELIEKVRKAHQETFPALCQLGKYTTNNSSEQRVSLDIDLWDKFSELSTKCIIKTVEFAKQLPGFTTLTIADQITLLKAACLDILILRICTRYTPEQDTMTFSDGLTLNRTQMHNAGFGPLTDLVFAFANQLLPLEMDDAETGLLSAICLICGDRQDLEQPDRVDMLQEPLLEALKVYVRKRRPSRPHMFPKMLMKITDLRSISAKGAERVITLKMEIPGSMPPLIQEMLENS
To be noted: stably transfected HeLa cells, versus reference antagonist, 18 hours incubation, read-out: RAR alpha Kdapp. As to the method:
as §1, §2, §3, §4, §5, §6

Another assay addresses T3, RAR gamma (Homo sapiens, UniProt P13631).
T3 sequence (P13631 178-423 limits assumed): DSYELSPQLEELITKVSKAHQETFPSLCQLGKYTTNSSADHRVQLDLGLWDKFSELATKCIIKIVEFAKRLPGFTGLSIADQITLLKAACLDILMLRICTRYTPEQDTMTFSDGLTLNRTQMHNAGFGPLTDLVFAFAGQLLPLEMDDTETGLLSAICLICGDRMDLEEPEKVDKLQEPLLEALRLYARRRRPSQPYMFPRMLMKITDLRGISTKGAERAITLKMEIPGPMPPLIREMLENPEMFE
The following applies: stably transfected HeLa cells, versus reference antagonist, 18 hours incubation, read-out: RAR gamma Kdapp. As to the method: as §1, §2, §3, §4, §5, §6

Consider one compound from patent US10995052B2, “Biaromatic propynyl compounds, pharmaceutical and cosmetic compositions containing same, and uses thereof” (GALDERMA RESEARCH & DEVELOPMENT, priority 2016, dated 2021).

SMILES strings stand for the structures.

Turning to `CC1(C)CCC(C)(C)c2cc(-c3cc(-c4ccc(C(=O)O)cc4)ccc3CCCO)ccc21` [Compound 1, 4′-(3-hydroxy-propyl)-3′-(5,5,8,8-tetramethyl-5,6,7,8-tetrahydro-naphthalen-2-yl)-biphenyl-4-carboxylic acid], the Kd on RAR beta is 4 nM; at RAR alpha it was 120 nM; at RAR gamma it was 4 nM.
